According to publication PMC4503722, “Novel Phenotypic Outcomes Identified for a Public Collection of Approved Drugs from a Publicly Accessible Panel of Assays” (PLoS ONE, 2015):

Tests used:
[1] = tested on: endothelial tube formation in co-cultures of ECFCs and ADSCs treated with VEGF; test: cells; format: cell-based, human; settings: for IC50: read-out: VEGF_ADSC\ECFC Angio CD31 TubeArea summarized IC50
[2] = tested on: ECFC/ADSC co-culture cell nuclei number; settings: for IC50: read-out: VEGF_ADSC\ECFC Angio Hoechst NucArea summarized IC50

Structure (SMILES) | VEGF_ADSC\ECFC Angio CD31 TubeArea IC50/EC50 [1] [µM] | VEGF_ADSC\ECFC Angio Hoechst NucArea IC50/EC50 [2] [µM] | other results
CS(=O)(=O)O.Cc1c(O)cccc1C(=O)N[C@@H](CSc1ccccc1)[C@H](O)CN1C[C@H]2CCCC[C@H]2C[C@H]1C(=O)NC(C)(C)C [NCGC00090782-06] | > 10 | > 10 | 
CC(=O)O[C@H]1C[C@H](O[C@H]2[C@@H](O)C[C@H](O[C@@H]3[C@@H](O)C[C@H](O[C@H]4CC[C@@]5(C)[C@H](CC[C@@H]6[C@H]5C[C@@H](O)[C@]5(C)[C@@H](C7=CC(=O)OC7)CC[C@]65O)C4)O[C@@H]3C)O[C@@H]2C)O[C@H](C)[C@H]1O[C@@H]1O[C@H](CO)[C@@H](O)[C@H](O)[C@@H]1O [NCGC00344547-01] | 0.0702 | 0.2792 | 
CCN(CC)C(=O)/C(C#N)=C/c1cc(O)c(O)c([N+](=O)[O-])c1 [NCGC00164555-03] | > 10 | > 10 | 
COC1=C(OC)C(=O)C(CCCCCCCCCCO)=C(C)C1=O [NCGC00160514-02] | > 10 | > 10 | 
O=C1OC(OC(=O)c2cccnc2Nc2cccc(C(F)(F)F)c2)c2ccccc21 (stereo not shown) [NCGC00167754-02] | > 10 | > 10 | 
C[C@H]1O[C@@H](O[C@H]2[C@@H](O)C[C@H](O[C@H]3[C@@H](O)C[C@H](O[C@H]4CC[C@@]5(C)[C@H](CC[C@@H]6[C@@H]5CC[C@]5(C)[C@@H](C7=CC(=O)OC7)CC[C@]65O)C4)O[C@@H]3C)O[C@@H]2C)C[C@H](O)[C@@H]1O [NCGC00142623-04] |  |  | IC50 [1]: 0.011 µM; IC50 [2]: 0.103 µM
CC(C(O)c1ccccc1)N(C)C/C=C/c1ccccc1 (stereo not shown) [NCGC00249896-01] | > 10 | > 10 | 
O=C1CC[C@H](C(=O)N2CCCCC2)N1 [NCGC00182992-01] | > 10 | > 10 | 
Cc1ccc(Nc2c(F)cccc2Cl)c(CC(=O)O)c1 [NCGC00181795-02] | > 10 | > 10 | 
Oc1ccc(O)cc1 [NCGC00015523-13] |  |  | IC50 [1]: > 10 µM; IC50 [2]: > 10 µM
Nc1ccc(O)cc1 [NCGC00090816-05] |  |  | IC50/EC50, VEGF_ADSC\ECFC Angio CD31 TubeArea (assay number 2) [1]: > 10 µM; IC50/EC50, VEGF_ADSC\ECFC Angio Hoechst NucArea (assay number 3) [2]: > 10 µM
O=C(N/N=C/c1ccccc1O)c1ccncc1 [NCGC00160648-02] |  |  | IC50 [1]: > 10 µM; IC50 [2]: > 10 µM
CCCCCCCCOc1ccccc1C(=O)Nc1ccc(C(=O)OCC[N+](C)(CC)CC)cc1.[Br-] [NCGC00163507-03] | > 10 | 8.466 | 
Cc1onc(-c2c(Cl)cccc2Cl)c1C(=O)Cl [NCGC00253649-01] | > 10 | > 10 | 
C#C[C@]1(OC(C)=O)CC[C@H]2[C@@H]3CCC4=CC(=NO)CC[C@@H]4[C@H]3CC[C@@]21CC (mixture of isomers) [NCGC00344561-01] | > 10 | > 10 | 
CC[C@]1(O)CC[C@H]2[C@@H]3CCC4=CCCC[C@@H]4[C@H]3CC[C@@]21C [NCGC00167514-02] | 6.2451 | > 10 | 
O=C(O)c1ccc2[nH]cc(CCCCN3CC=C(c4ccccc4)CC3)c2c1 [NCGC00092328-02] | > 10 | > 10 | 
COC(=O)N[C@H](C(=O)N[C@@H](Cc1ccccc1)[C@@H](O)CN(Cc1ccc(-c2ccccn2)cc1)NC(=O)[C@@H](NC(=O)OC)C(C)(C)C)C(C)(C)C [NCGC00182552-02] | > 10 | > 10 | 

Structure (SMILES) | VEGF_ADSC\ECFC Angio CD31 TubeArea IC50/EC50 [1] [µM] | VEGF_ADSC\ECFC Angio Hoechst NucArea IC50/EC50 [2] [µM] | other results
CC(=O)Oc1ccc(C2(c3ccc(OC(C)=O)cc3)C(=O)Nc3ccccc32)cc1 [NCGC00159420-04] |  |  | IC50/EC50, VEGF_ADSC\ECFC Angio CD31 TubeArea (assay number 2) [1]: > 10 µM; IC50/EC50, VEGF_ADSC\ECFC Angio Hoechst NucArea (assay number 3) [2]: > 10 µM
CCCCC(CC)COC(=O)C(C#N)=C(c1ccccc1)c1ccccc1 (stereo not shown) [NCGC00091585-05] | > 10 | 3.289 | 
NC(=O)c1cccnc1 [NCGC00093354-05] |  |  | IC50 [1]: > 10 µM; IC50 [2]: > 10 µM
CC(=O)C[C@H]1[C@H](O[C@H]2[C@H](OC(C)C(=O)N[C@@H](C)C(=O)N[C@H](CCC(=O)N[C@@H](CCCCN)C(=O)N[C@H](C)C(=O)O)C(N)=O)[C@@H](NC(=O)O)C(O)O[C@@H]2CO)O[C@H](CO)[C@@H](O)[C@@H]1O (stereo partly shown) [NCGC00181761-01] | > 10 | > 10 | 
Oc1ccc2[nH]cc(CCCCN3CC=C(c4ccccc4)CC3)c2c1 [NCGC00025216-03] | 4.0367 | > 10 | 
CC12CCC(CC1)C(C)(C)O2 [NCGC00091666-04] |  |  | IC50 [1]: > 10 µM; IC50 [2]: > 10 µM
COc1ccccc1N1CCN(CC(O)COc2cc(OC)c(OC)c(OC)c2)CC1 (stereo not shown) [NCGC00253761-01] | > 10 | > 10 | 
CCCCCCCCCCCC[N+](C)(C)CCOc1ccccc1 [NCGC00091010-03] |  |  | IC50 [1]: 3.38 µM; IC50 [2]: 7.29 µM
CS(=O)(=O)CCNCc1ccc(-c2ccc3ncnc(Nc4ccc(OCc5cccc(F)c5)c(Cl)c4)c3c2)o1 [NCGC00167507-04] | > 10 | > 10 | 
CCCCCCCCCCCCCCCCCCCCCC(=O)Nc1ccn([C@@H]2O[C@H](CO)[C@@H](O)[C@@H]2O)c(=O)n1 [NCGC00167515-02] | > 10 | > 10 | 
OCCN1CCN(CCCN2c3ccccc3Sc3ccc(Cl)cc32)CC1 [NCGC00015826-13] |  |  | IC50 [1]: > 10 µM; IC50 [2]: > 10 µM
O=c1c(-c2ccc(O)cc2)coc2cc(O)cc(O)c12 [NCGC00015479-19] |  |  | IC50/EC50, VEGF_ADSC\ECFC Angio CD31 TubeArea (assay number 2) [1]: > 10 µM; IC50/EC50, VEGF_ADSC\ECFC Angio Hoechst NucArea (assay number 3) [2]: > 10 µM
CCCSS/C(CCO)=C(\C)N(C=O)Cc1cnc(C)nc1N [NCGC00167447-02] | > 10 | > 10 | 
C[C@H]1O[C@@H](O[C@H]2CC[C@@]3(C)[C@H](CC[C@@H]4[C@@H]3C[C@@H](O)[C@]3(C)[C@@H](C5=CC(=O)OC5)CC[C@]43O)C2)C[C@H](O)[C@@H]1O[C@H]1C[C@H](O)[C@H](O[C@H]2C[C@H](O)[C@H](O[C@@H]3O[C@H](CO)[C@@H](O)[C@H](O)[C@H]3O)[C@@H](C)O2)[C@@H](C)O1 [NCGC00159441-03] | 0.0614 | 0.2987 | 
CCCCC(=O)O[C@H]1CC[C@H]2[C@@H]3CCc4cc(O)ccc4[C@@H]3CC[C@]12C [NCGC00022275-03] |  |  | IC50/EC50, VEGF_ADSC\ECFC Angio CD31 TubeArea (assay number 2) [1]: > 10 µM; IC50/EC50, VEGF_ADSC\ECFC Angio Hoechst NucArea (assay number 3) [2]: 8.298 µM
COc1cccc(CCc2ccccc2OCC(CN(C)C)OC(=O)CCC(=O)O)c1.Cl (stereo not shown) [NCGC00167489-03] | > 10 | > 10 | 
COc1cc(S(N)(=O)=O)cc(C(=O)O)c1OC [NCGC00253657-01] | > 10 | > 10 | 
